Measured values reported in patent US12661308B2, “Antimicrobial AZO compounds and uses thereof” (The Regents Of The University Of Colorado, A Body Corporate, priority 2019, dated 2026).
“Also recorded” adds a separate entry of the source.

Experiments:
[1] = tested on: S. mutans (ATCC 25175) biofilm; assay: S. mutans biofilm growth study by CFU count on coated and bulk substrates (Example 4); format: cell-based, Streptococcus mutans
Procedure: Coating formulations of OH-AAZO were prepared in THF, all others were prepared in DMF. The THF volume was kept constant (1 mL) and the mass of OH-AAZO monomer was varied to attain the desired concentration. In addition to the OH-AAZO monomer, the coating also consisted of AIBN (2 wt. % relative to the mass of the monomer), and Rhodamine B (0.2 wt. % relative to the mass of the monomer).
Once cured, the MMA:TEGDMA:PMMA base polymers were placed into a mount on a square glass microscope slide. 3 μL of the coating formulation was added via pipette to one side of the substrate and spin coated (1000 rpm for 1 min, 6000 rpm for 3 min), then the process was repeated on the other side. Once both sides were coated, they were placed in an oven for 3 h at 100° C., then under vacuum for an additional 0.5 h.
Bulk OH-AAZO formulations were prepared using the acrylic base polymer method with the addition of the appropriate weight percentage of OH-AAZO (relative to the total mass of the formulation) and AIBN (rather than camphorquinone/amine, 2 wt. %). The components were stirred at room temperature until completely dissolved. The formulations were pipetted into the rubber spacer and cured for 1 h at 100° C. Conversion rates were observed via FT-IR.
Following curing, residual monomer was aqueously extracted by autoclaving (20 psi, 128° C.) for 1 h in MilliQ water (approx. 5 mL water per substrate). The MilliQ water was replaced with fresh water (approx. 5 mL water per substrate) and placed in an 80° C. oven for 2 h. The substrates were blotted dry and analyzed via UV-Vis spectroscopy to confirm the relative amount of the coating (FIG. 9). All coated and bulk substrates were autoclaved prior to their use with both mammalian and bacterial cells.
S. mutans biofilms were grown from a 24 h BHI liquid culture inoculated with an isolated S. mutans colony. The liquid culture was diluted 1:50 in BHI media containing 1 wt. % sucrose in each well in a 96-well plate containing a substrate of interest. The plate was incubated in the dark at 37° C. and 5% CO2 for the necessary amount of time (t=24 h, 48 h, 72 h, depending on the experiment).
(§1) Following biofilm growth in the 96-well plate, the substrates were aseptically removed from the 96-well plate and placed in a vial containing 5 mL of 1× PBS solution. The vials were sonicated in a water bath for 10 min at 45° C., and the wells that previously contained the substrates were briefly sonicated using a probe sonicator (3 W RMS output) for 10 s per well. 200 μL aliquots of the sonicated PBS solution were placed in a 96-well plate and diluted 1:10 in each subsequent row. 20 μL aliquots of the sonicated media wells were placed in a 96-well plate containing 180 μL of PBS solution and diluted 1:10 in each subsequent row. Each column was then plated at a volume of 10 μL on a BHI agar plate in triplicate. The plates were then incubated at 37° C. and 5% CO2 for 48 h. The CFUs on each plate were counted in order to quantify the amount of biofilm remaining on the surface of the substrate and the bacteria remaining in the media after the removal of the substrate using the following equations: […]

S. mutans biofilm = S. mutans biofilm growth on coated pit and fissure dental sealants; format: cell-based, Streptococcus mutans; details: coating on pit and fissure sealants
Source text: In some implementations, the azobenzene polymers can be used as an antimicrobial coating on pit and fissure dental sealants. […] Azobenzene coatings can be incorporated into pit and fissure sealants as an anti-bacterial coating to prevent tooth decay.

[2] = tested on: S. agalactiae (Group B strep, GBS); assay: Growth study, S. agalactiae (Group B strep); format: cell-based, Streptococcus agalactiae; details: 50 mg/ML coated substrates, BHI media, 24 h time-period
Procedure: A single bacterial colony was inoculated in 4 mL BHI media. The colony was grown to mid-log phase (to approximately OD600=0.4), statically at 37° C., which for was approximately 4 hours for the S. agalactiae GBS, approximately 11 hours for the S. pyogenes GAS, and approximately 6 hours for the S. pneumaoniae. They were diluted 1:5 in 80% glycerol (in water) solution (4 parts culture, 1 part glycerol, for a final glycerol concentration of 16%). In a 96-well plate, each was diluted to 1:100 resulting in a final concentration of 1×10^6 CFU/mL and grown at 37° C. with 5% CO2.

[3] = tested on: L929 mouse epithelial cells; assay: MTT cytotoxicity of coated substrates (Example 3); format: cell-based; details: 0.5 mg/mL and 50 mg/mL coated substrates, cells grown 100 hr, relative to uncoated sample and negative control
Procedure: In this Example, the cytotoxicity of polymeric substrates coated with 0.5 mg/mL OH-AAZO and 50 mg/mL OH-AAZO in the manner described in Example 1 were tested using L929 mouse epithelial cells. The following six samples were prepared: polymeric substrate coated with 50 mg/mL OH-AAZO, polymeric substrate coated with 0.5 mg/mL OH-AAZO, uncoated polymeric substrate, positive control, negative control, and an empty well. All coatings were spin coated. All samples were run in triplicate.
The cells were grown on substrates for 100 hr with media replacement when necessary. L929 conditions: Passage 3. Initial concentration of cells: 1.67×10^4 cells/mL.
Methods and assumptions: • Wells containing MTT product were analyzed at 570 nm. • OD570 values were corrected based on OD570 values of wells containing MTT product+other reagents only (no cells). • Assumes 100% cell death (i.e., 0% cell viability) in these positive control wells. • Negative control (−) wells contained cells grown with no substrate. • Assumes all cell death occurred naturally.
Cell viability was calculated using the following equation: […]

[4] = tested on: A. actinomycetemcomitans (ATCC 43718) biofilm; assay: Biofilm growth study, A. actinomycetemcomitans; format: cell-based, Aggregatibacter actinomycetemcomitans; details: 50 mg/mL coated substrate, 24 h time-period
Procedure: S. oralis and A. actinomycetemcomitans were streaked on a BHI agar plate and incubated at 37° C. and 5% CO2 for 48 h. An isolated colony was inoculated in 5 mL BHI media for 12 h under the same incubation conditions, followed by a 1:10 dilution in BHI media in a 96-well plate containing the substrates of interest. […]
as §1

C=CC(=O)Oc1ccccc1/N=N/c1ccccc1O [OH-AAZO, phenolic acrylated azobenzene]
CFUs of S. mutans biofilm on substrate ([1]; 5 mg/mL coating solution, 24 h): approximately 1.0×10^8 CFUs
difference in CFUs between coated and uncoated substrates ([1]; 5 mg/mL coating solution, 24 h): no significant difference
reduction in CFUs of S. mutans biofilm relative to the uncoated control ([1]; 25 mg/mL coating solution, 24 h): 4 log
sterility of the substrate (sonication CFU) ([1]; 50 mg/mL coated substrates, over 72 h): maintained sterility
bacterial growth in the media surrounding the substrate ([1]; 50 mg/mL coated substrates, t=48 h and 72 h): Some media bacterial growth was observed
bacterial growth in the surrounding media ([1]; 50 mg/ml coated substrate, 24 h): absent
CFUs of S. mutans biofilm on substrate surface ([1]; 100 mg/mL coating solution, 24 h): no observable CFUs
bacterial growth in the surrounding media ([1]; 100 mg/ml coated substrate, 24 h): absent
CFUs of S. mutans on surface and in surrounding media ([1]; 1.5 wt. % OH-AAZO bulk bisGMA:TEGDMA substrate, 24 h): no observable CFUs; also recorded: maintained sterility
CFUs of S. mutans on surface and in surrounding media ([1]; 2 wt. % OH-AAZO bulk bisGMA:TEGDMA substrate, 24 h): no observable CFUs; also recorded: maintained sterility
prevention of growth of an S. mutans biofilm ([1]; sucrose-dependent conditions): shown to prevent the growth
S. mutans biofilm growth (S. mutans biofilm): absent
S. agalactiae growth on coated substrate and in media [2]: did not grow on the coated substrate nor in the media
cytotoxicity (cell viability, MTT) [3]: non-cytotoxic; also recorded: does not contribute significantly to cytotoxicity
antibacterial effect on A. actinomycetemcomitans biofilm (CFUs) [4]: no discernable antibacterial effect or reduction in CFUs
